Assay results: patent publication US10196421B2, “Nucleophile-reactive sulfonated compounds for the (radio)labelling of (bio)molecules; precursors and conjugates thereof” (Advanced Accelerator Applications SA, priority 2012, dated 2019)

Assay: solubility of Cy 5.5 before and after conjugation with the sulfonated prosthetic compound
Assay type: physicochemical
Settings: unconjugated precursor
From the text: This fact confirms that the present invention enables to increase the hydrophilic character of the (bio)molecules conjugated therewith.

solubility in water: water insoluble
Substance: Cy 5.5
